The subject of data set [1] is everted sacs of rat small intestine (jejunum). The data set can be described thus: Paracellular (lucifer yellow) and transcellular (imipramine) marker permeability across everted gut sac with or without TPGS. Format: in vitro ADME. The procedure: (§1) The everted sac method was used as previously described ([25]). Everted intestinal sacs were prepared by quickly removing the small intestine from starved rats killed under CO2-anesthesia. The jejunum was excised, flushed through several times with saline solution at room temperature and placed immediately into oxygenated buffer solution at 37°C. Then the intestine was gently everted over a steel rod, filled with fresh oxygenated buffer solution and divided into sacs approximately 4.5 cm in length with silk suture. […] At the defined time points sacs were removed and blotted dry. The sacs were cut open and the serosal fluid was drained into small Eppendorf vial to determine the drug concentration. The area of each sac was calculated closely. Each sac was weighed before and after fluid collection to calculate accurately the volume inside the sac.
(§2) The chromatographic data was acquired by Chromgate 3.1 software from Knauer. Analyses were carried out at ambient temperature on a Chromolith Performance RP-18e (100 mm 4.6 mm i.d., Merck) coupled with a Chromolith RP-18e guard cartridge (5.0 mm 4.6 mm i.d., Merck).

Data set [2] has the same test system. Put plainly: LDH release of the everted gut sac. The settings on record: TPGS 0.1 mg/mL, PEG 0.5% w/v, 90 min. The procedure: The viability and any possible damage of the gut were evaluated by measuring the release of the cytosolic enzyme lactic dehydrogenase (LDH) as an indicator of cell damage ([18]). The LDH activity was determined in the incubation media in the absence or presence of the excipients using LDH-P kit from Kimia pajouhan (Tehran, Iran). The results were calculated as U/L/cm^2 of sac area (1 unit reduces 10^-6 mol pyruvate per min at pH of 7.5). The influence of excipients (using the maximum concentrations) on the viability of gut sac was measured at 30, 60 and 90 min and compared to the control group (without adding any excipient).

For data set [3] the test system is unchanged. The data set can be described thus: Etoposide mucosal-to-serosal transport across everted gut sac in absence or presence of excipients/P-gp inhibitor. Format: in vitro ADME. The settings on record: etoposide 25 μg/mL; verapamil 100 μg/mL, TPGS 0.002-0.1 mg/mL, PEG 400 0.05, 0.1 and 0.5% w/v; compared to control. On the procedure:
as §1, §2

“Also recorded” adds a separate entry of the source.

As for Lucifer yellow, the figures for the “Permeability of lucifer yellow” value in data set [1] (in absence of TPGS) and in data set [1] (in presence of TPGS 0.1 mg/mL) were 9.3 ± 0.03 × 10^-6 cm/s and 9.65 ± 0.6 × 10^-6 cm/s, respectively.
Turning to PEG 400, the “LDH release in presence of excipient versus control” value in data set [2] was “not notably changed”. Besides, the “Effect on absorptive transport/permeability of etoposide (in words)” value in data set [3] is reported as “no effect; also recorded: not affected”.

Values taken from publication PMC3813364 (Iranian Journal of Pharmaceutical Research : IJPR, 2013).
